In BindingDB's records for doi:10.1016/j.bmcl.2009.03.071 (Wyeth Research, 2009) one finds Ki data, which are given here for 1 compound.

Common to all, as to assay: Radioligand Binding Assay (Ki)
What all share (details): pH 7.4; 22 °C

For assay [1], the target named is T1, 5-hydroxytryptamine receptor 2C (Homo sapiens, UniProt P28335).
T1 sequence (P28335 whole entry): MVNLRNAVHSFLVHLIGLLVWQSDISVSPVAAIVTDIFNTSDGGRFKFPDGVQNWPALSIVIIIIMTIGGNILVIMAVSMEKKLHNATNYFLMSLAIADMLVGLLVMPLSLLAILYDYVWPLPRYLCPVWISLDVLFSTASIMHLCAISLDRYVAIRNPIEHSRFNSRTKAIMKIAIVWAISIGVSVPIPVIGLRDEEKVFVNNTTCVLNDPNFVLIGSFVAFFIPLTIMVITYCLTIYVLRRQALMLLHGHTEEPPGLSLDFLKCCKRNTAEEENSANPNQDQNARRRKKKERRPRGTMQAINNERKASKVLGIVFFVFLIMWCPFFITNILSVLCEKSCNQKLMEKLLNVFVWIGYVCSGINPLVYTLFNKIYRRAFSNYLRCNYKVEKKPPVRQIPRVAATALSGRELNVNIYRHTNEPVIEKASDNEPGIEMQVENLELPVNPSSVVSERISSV
As to the method:
(§1) Competition experiments were performed in the presence radioligand with membrane protein (obtained from cells expressing the receptor) and test compounds. The mixture was incubated at room temperature for 60 min and the reaction stopped by rapid filtration onto a 96-well GF/B filter using a Packard Filtermate harvester. Radioactivity retained on the filters was measured by liquid scintillation in a Packard TopCount. IC50 values for test compounds were determined from nonlinear regression analysis of data collected from ligand binding experiments. The inhibition constant (Ki) was calculated from IC50 value by the Cheng and Prusoff equation.

In assay [2] the target is T2, 5-hydroxytryptamine receptor 1A (Homo sapiens, UniProt P08908).
T2 sequence (P08908 whole entry): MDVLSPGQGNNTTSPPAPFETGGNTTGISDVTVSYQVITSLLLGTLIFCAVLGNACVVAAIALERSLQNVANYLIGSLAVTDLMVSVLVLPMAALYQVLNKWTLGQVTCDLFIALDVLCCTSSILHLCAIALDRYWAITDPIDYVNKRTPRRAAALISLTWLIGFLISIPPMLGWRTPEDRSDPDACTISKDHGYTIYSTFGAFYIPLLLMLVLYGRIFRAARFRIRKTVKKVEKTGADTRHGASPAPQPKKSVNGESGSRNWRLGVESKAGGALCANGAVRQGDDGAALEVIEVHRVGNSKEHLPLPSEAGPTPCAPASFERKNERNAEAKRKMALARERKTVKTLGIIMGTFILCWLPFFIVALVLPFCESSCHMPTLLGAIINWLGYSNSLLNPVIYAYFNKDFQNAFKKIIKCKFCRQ
As to the method:
as §1

The next assay deals with D(2) dopamine receptor (Homo sapiens, UniProt P14416). Here is the method:
as §1

In assay [3] the target is 5-hydroxytryptamine receptor 2B (Homo sapiens, UniProt P41595). As to the method:
as §1

The target in assay [4] is 5-hydroxytryptamine receptor 1B (Homo sapiens, UniProt P28222). Here is the method: as §1
Assay [5] addresses 5-hydroxytryptamine receptor 7 (Homo sapiens, UniProt P34969). As to the method: as §1
Assay [6] has as its target 5-hydroxytryptamine receptor 1D (Homo sapiens, UniProt P28221). Here is the method:
as §1

D(2) dopamine receptor, sequence (P14416 whole entry): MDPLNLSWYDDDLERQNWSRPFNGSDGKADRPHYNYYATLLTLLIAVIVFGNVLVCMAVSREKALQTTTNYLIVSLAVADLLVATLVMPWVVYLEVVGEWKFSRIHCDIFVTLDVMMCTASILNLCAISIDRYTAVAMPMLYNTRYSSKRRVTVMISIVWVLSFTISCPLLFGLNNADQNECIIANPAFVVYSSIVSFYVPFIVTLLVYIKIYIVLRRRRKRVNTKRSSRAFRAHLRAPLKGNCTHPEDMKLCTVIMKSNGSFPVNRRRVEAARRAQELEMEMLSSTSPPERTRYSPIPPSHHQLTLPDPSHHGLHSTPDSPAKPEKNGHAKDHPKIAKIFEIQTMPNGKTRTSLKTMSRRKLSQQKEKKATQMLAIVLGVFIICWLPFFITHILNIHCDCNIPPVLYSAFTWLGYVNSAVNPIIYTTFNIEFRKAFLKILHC
5-hydroxytryptamine receptor 7, sequence (P34969 whole entry): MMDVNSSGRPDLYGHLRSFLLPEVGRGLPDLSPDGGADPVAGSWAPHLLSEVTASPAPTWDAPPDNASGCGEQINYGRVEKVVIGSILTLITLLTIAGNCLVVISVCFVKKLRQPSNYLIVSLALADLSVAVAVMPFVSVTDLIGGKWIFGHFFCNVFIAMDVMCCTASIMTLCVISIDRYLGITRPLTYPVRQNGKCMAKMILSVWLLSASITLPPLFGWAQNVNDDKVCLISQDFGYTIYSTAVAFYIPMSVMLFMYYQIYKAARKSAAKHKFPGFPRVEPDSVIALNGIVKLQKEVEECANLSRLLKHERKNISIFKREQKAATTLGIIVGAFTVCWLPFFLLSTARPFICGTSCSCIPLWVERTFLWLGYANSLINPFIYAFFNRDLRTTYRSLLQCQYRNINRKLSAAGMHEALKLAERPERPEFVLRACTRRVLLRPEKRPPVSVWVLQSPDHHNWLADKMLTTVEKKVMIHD
5-hydroxytryptamine receptor 1D, sequence (P28221 whole entry): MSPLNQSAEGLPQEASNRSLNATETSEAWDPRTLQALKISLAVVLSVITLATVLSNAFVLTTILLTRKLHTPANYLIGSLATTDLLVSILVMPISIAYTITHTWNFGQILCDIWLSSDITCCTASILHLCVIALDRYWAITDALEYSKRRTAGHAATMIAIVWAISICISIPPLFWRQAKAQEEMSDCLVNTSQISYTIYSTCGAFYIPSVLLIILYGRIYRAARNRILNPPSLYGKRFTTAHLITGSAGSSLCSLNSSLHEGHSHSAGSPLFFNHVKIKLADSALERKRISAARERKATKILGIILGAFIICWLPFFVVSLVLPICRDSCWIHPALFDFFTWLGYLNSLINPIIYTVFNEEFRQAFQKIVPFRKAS
5-hydroxytryptamine receptor 2B, sequence (P41595 whole entry): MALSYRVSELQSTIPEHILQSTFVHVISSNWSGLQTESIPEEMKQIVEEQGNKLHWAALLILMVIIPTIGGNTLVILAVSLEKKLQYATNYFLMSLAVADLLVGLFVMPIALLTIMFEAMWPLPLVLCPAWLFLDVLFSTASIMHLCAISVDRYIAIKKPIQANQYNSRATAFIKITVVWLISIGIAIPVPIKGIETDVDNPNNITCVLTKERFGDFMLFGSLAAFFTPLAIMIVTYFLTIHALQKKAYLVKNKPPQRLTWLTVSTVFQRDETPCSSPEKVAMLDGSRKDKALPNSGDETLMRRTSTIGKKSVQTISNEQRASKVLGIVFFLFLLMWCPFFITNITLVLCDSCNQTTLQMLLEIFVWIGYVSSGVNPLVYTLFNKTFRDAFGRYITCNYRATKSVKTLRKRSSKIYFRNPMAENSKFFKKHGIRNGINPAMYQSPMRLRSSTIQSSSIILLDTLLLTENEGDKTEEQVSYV
5-hydroxytryptamine receptor 1B, sequence (P28222 whole entry): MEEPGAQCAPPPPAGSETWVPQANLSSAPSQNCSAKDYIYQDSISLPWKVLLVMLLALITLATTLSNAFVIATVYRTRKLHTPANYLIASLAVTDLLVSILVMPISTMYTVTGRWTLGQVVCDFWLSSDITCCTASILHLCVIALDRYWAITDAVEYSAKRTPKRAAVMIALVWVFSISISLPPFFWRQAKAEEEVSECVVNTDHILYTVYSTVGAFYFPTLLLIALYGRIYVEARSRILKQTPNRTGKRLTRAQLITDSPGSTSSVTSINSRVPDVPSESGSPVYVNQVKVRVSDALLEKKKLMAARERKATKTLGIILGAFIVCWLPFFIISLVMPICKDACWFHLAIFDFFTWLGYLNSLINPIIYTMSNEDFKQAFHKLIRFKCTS

On to `NCCC(=O)Nc1ccc2cnn(S(=O)(=O)c3cccc4ccccc34)c2c1` [3-amino-N-[1-(naphthalene-1-sulfonyl)-1H-indazol-6-yl]propanamide], for which the Ki in assay [1] was over 2000 nM; in assay [2], 6400 nM; at D(2) dopamine receptor, over 2000 nM; in assay [3], 155 nM; in assay [4], over 2000 nM; in assay [5] it was 5100 nM. Also, the Ki in assay [6] is over 2000 nM.

As a reminder, the Ki is a measure of affinity in units of concentration, obtained from inhibition or displacement. The low end stands for a stronger hold on the target, the high end for a looser hold on the target.
